According to patent US20090137661A1, “PLANT DERIVED COMPOUNDS AND COMPOUND FORMULAE CONTAINING THE SAME FOR THE TREATMENT OF CERVICAL CANCER” (priority 2007, published 2009):
In brackets after ≈: the same amount, converted by molar mass. Where a name gives a salt, the structure may show the parent alone. Read-outs that look alike come from different tables or passages of the source.

Columns and labels:
HPV 16 pseudovirus = assay: Screening for anti-infection compounds (GFP-expressing HPV 16 pseudovirus infecting HeLa cells); format: cell-based, human papilloma virus 16; conditions: for IC50: Pseudovirus, HeLa, 48 h, read-out: IC50 for inhibiting HPV 16 pseudoviruses
Method: […] were co-transfected with codon-modified papillomavirus capsid genes, L1 and L2, plasmid: p16shell, and a GFP reporter plasmid, pClneo-GFP, to monitor the infectivity of the stock.
The GFP-expressing HPV 16 pseudoviruses were prepared and harvested in accordance with the protocol provided by the National Cancer Institute (USA). Said protocol is available on line at http://home.ccr.cancer.gov/lco/production.asp which is incorporated herein by reference in its entirety.
In the present application, the GFP-expressing HPV 16 pseudoviruses used have titers of about 4*10^8 infectious units per ml.
HeLa cells were seeded in 96-well plates at a density of 6×10^3 cells per well. 24 hours later, 2×HPV 16 pseudoviruses of various volumes were added. The signal to background ratio of each volume of the HPV 16 pseudoviruses was illustrated in FIG. 2.
When choosing screening platform, the infection rate should be around 20%. […] Under this dosage, the signal to background ratio is 2.0-2.5.
(§1) Carrageenan was used as positive control. […] The cell survival rate and IC50 of each sample were obtained in accordance with the method stated above.

HeLa cells [1] = assay: MTT assay within the anti-infection screening platform; format: cell-based, human; conditions: 48 hours, concentrations inhibiting HPV 16 pseudovirus
Text: as §1

HeLa cells [2] = assay: Cytotoxicity assay (MTT assay) on HeLa cells; conditions: for IC50: Homo sapiens, HeLa
Method: HeLa cell line was obtained from Dr. S. S. Shen (Biomedical Engineering Research Laboratories of Industrial Technology Research Institute of Taiwan). HeLa cells are adherent cells and were propagated and maintained in Dulbecco's modified Eagle's medium (DMEM) supplemented with 10% fetal bovine serum (FBS), […] sodium bicarbonate (NaHCO3), 1 mM sodium pyruvate, and 0.1 mM non-essential amino acid.
(§2) Cytotoxicity Assay (MTT Assay)
The cytotoxicity of the compounds set forth herein to HeLa cells and HUVEC cells were determined by the MTT assay. The HUVEC cells were used to understand the cytotoxicity of said compounds to normal human cells. Besides, doxorubicin HCl was used as a comparative example so as to investigate the efficacy of the compounds according to the embodiments of the present invention.
Briefly, the MTT assay comprises the following steps: • (A) Cells were seeded in 96-well plates 3 hours before treatment, wherein the density of HeLa cell is 1×10^4 cells per well and the density of HUVEC cell is 2×10^4 cells per well; • (B) Cells were then treated with various concentrations of tested samples and incubated for a predetermined period (24, 48, and 72 hours); • (C) After the predetermined periods expired, the tested samples were removed and 100 μl MTT reagent (1 mg/ml) was added to each well; • (D) The plates were incubated at 37° C. with 5% of CO2 for 5 hours; • (E) The MTT reagent was removed and 100 μl DMSO was added to each well; • (F) The optical density (O.D.) of each well was determined by ELISA reader at a wavelength of 560 nm.
Each experiment was repeated for 3 times and the result shown in the tables herein were the mean value of the 3 repetitions. The O.D. of the vehicle control and experimental groups were recorded. The cell survival rate of each sample was calculated as follows:
Cell survival rate(%)=O.D.control/O.D.experimental*100%
Then, the cell survival rate was plotted against the compound concentration and the IC50 value of each compound was calculated by the GraFit data analysis software (Erithacus Software Ltd.).

HUVEC cells = assay: Cytotoxicity assay (MTT assay) on HUVEC cells; format: cell-based, human; conditions: for IC50: Homo sapiens, HUVEC cells
Text: Human umbilical vein endothelial cells (HUVEC) were purchased from Food Industry Research and Development Institute in Hsin-Chu City, Taiwan. HUVEC cells were propagated and maintained in Medium 199 supplemented with 10% FBS, Heparin, and […].
as §2

[3] = 24 h, read-out: IC50 at 24 hours, HeLa
[4] = 48 h, read-out: IC50 at 48 hours, HeLa
[5] = 72 h, read-out: IC50 at 72 hours, HeLa

## O=C(O)c1cc(O)c(O)c(O)c1 [Compound D, gallic acid]
HPV 16 pseudovirus
  IC50: 8.9 mg/L (≈ 52.3 µM)
HeLa cells [1]
  survival rates of HeLa cells in anti-infection screening: higher than 80%
HeLa cells [2]; 0.125 μg/ml, 24 hrs
  HeLa Cell Survival Rate: 85%
HeLa cells [2]; 0.125 μg/ml, 48 hrs
  HeLa Cell Survival Rate: 96%
HeLa cells [2]; 0.125 μg/ml, 72 hrs
  HeLa Cell Survival Rate: 101%
HeLa cells [2]; 1.25 μg/ml, 24 hrs
  HeLa Cell Survival Rate: 84%
HeLa cells [2]; 1.25 μg/ml, 48 hrs
  HeLa Cell Survival Rate: 91%
HeLa cells [2]; 1.25 μg/ml, 72 hrs
  HeLa Cell Survival Rate: 103%
HeLa cells [2]; 12.5 μg/ml, 24 hrs
  HeLa Cell Survival Rate: 90%
HeLa cells [2]; 12.5 μg/ml, 48 hrs
  HeLa Cell Survival Rate: 82%
HeLa cells [2]; 12.5 μg/ml, 72 hrs
  HeLa Cell Survival Rate: 99%
HeLa cells [2]; 125 μg/ml, 24 hrs
  HeLa Cell Survival Rate: 17%
HeLa cells [2]; 125 μg/ml, 48 hrs
  HeLa Cell Survival Rate: 11%
HeLa cells [2]; 125 μg/ml, 72 hrs
  HeLa Cell Survival Rate: 8%
HeLa cells [2]; [3]
  IC50: 37 mg/L (≈ 217 µM)
HeLa cells [2]; [4]
  IC50: 26 mg/L (≈ 153 µM)
HeLa cells [2]; [5]
  IC50: 45 mg/L (≈ 265 µM)
HeLa cells [2]; under the corresponding conditions
  cytotoxicity to HeLa cells compared with Doxorubicin HCl: higher cytotoxicity

## Carrageenan [reference compound]
HPV 16 pseudovirus; HeLa cells infected with 0.25 μl HPV 16 pseudovirus per well, 48 hours
  IC50 for inhibiting HPV 16 pseudoviruses: about 0.07 μg/ml

## O=c1cc(-c2ccccc2)oc2cc(O)c(O)c(O)c12 [Compound C, baicalein]
HPV 16 pseudovirus
  IC50: 8.2 mg/L (≈ 30.3 µM)
HeLa cells [1]
  survival rates of HeLa cells in anti-infection screening: higher than 80%

## COc1cccc2c1C(=O)c1c(O)c3c(c(O)c1C2=O)C[C@@](O)(C(=O)CO)C[C@@H]3O[C@H]1C[C@H](N)[C@H](O)[C@H](C)O1 [Doxorubin HCl, Doxorubicin HCl, reference compound]
HUVEC cells; 0.145 μg/ml, 24 hrs
  HUVEC Cell Survival Rate: 111%
HUVEC cells; 0.145 μg/ml, 48 hrs
  HUVEC Cell Survival Rate: 77%
HUVEC cells; 0.145 μg/ml, 72 hrs
  HUVEC Cell Survival Rate: 68%
HUVEC cells; 0.290 μg/ml, 24 hrs
  HUVEC Cell Survival Rate: 100%
HUVEC cells; 0.290 μg/ml, 48 hrs
  HUVEC Cell Survival Rate: 56%
HUVEC cells; 0.290 μg/ml, 72 hrs
  HUVEC Cell Survival Rate: 38%
HUVEC cells; 0.580 μg/ml, 24 hrs
  HUVEC Cell Survival Rate: 90%
HUVEC cells; 0.580 μg/ml, 48 hrs
  HUVEC Cell Survival Rate: 19%
HUVEC cells; 0.580 μg/ml, 72 hrs
  HUVEC Cell Survival Rate: 14%
HUVEC cells; 24 hours, read-out: IC50 at 24 hours, HUVEC
  IC50: > 0.58 mg/L
HUVEC cells; 48 hours, read-out: IC50 at 48 hours, HUVEC
  IC50: 0.299 mg/L
HUVEC cells; 72 hours, read-out: IC50 at 72 hours, HUVEC
  IC50: 0.22 mg/L
HeLa cells [2]; 0.00058 μg/ml, 24 hrs
  HeLa Cell Survival Rate: 96%
HeLa cells [2]; 0.00058 μg/ml, 48 hrs
  HeLa Cell Survival Rate: 100%
HeLa cells [2]; 0.00058 μg/ml, 72 hrs
  HeLa Cell Survival Rate: 97%
HeLa cells [2]; 0.0058 μg/ml, 24 hrs
  HeLa Cell Survival Rate: 95%
HeLa cells [2]; 0.0058 μg/ml, 48 hrs
  HeLa Cell Survival Rate: 92%
HeLa cells [2]; 0.0058 μg/ml, 72 hrs
  HeLa Cell Survival Rate: 89%
HeLa cells [2]; 0.058 μg/ml, 24 hrs
  HeLa Cell Survival Rate: 84%
HeLa cells [2]; 0.058 μg/ml, 48 hrs
  HeLa Cell Survival Rate: 81%
HeLa cells [2]; 0.058 μg/ml, 72 hrs
  HeLa Cell Survival Rate: 72%
HeLa cells [2]; 0.58 μg/ml, 24 hrs
  HeLa Cell Survival Rate: 46%
HeLa cells [2]; 0.58 μg/ml, 48 hrs
  HeLa Cell Survival Rate: 23%
HeLa cells [2]; 0.58 μg/ml, 72 hrs
  HeLa Cell Survival Rate: 11%
HeLa cells [2]; 24 hours
  HUVEC/HeLa ratio of IC50: >1.2
HeLa cells [2]; 48 hours
  HUVEC/HeLa ratio of IC50: 1.5
HeLa cells [2]; 72 hours
  HUVEC/HeLa ratio of IC50: 1.8
HeLa cells [2]; [3]
  IC50: 0.48 mg/L
HeLa cells [2]; [4]
  IC50: 0.2 mg/L
HeLa cells [2]; [5]
  IC50: 0.12 mg/L
